According to PubChem BioAssay AID328 (DTP/NCI, 2004):
“And” between values parts separate entries of the source, which are not always exact repeats. Equal values may be shown once. Toxic doses and inconclusive results are not listed. Non-standard residues stand in square brackets, D forms with d. Residues, ends and D or L forms follow the SMILES beside them. ξ: configuration not given here. *: point of attachment. Cbz = O=C(OCc1ccccc1)*; ξK = NCCCCC(N)C(=O)O

Test system: BDF1 mice, P388 leukemia ip, median survival T/C
Assay: NCI In Vivo Anticancer Drug Screen. Data for tumor model P388 Leukemia (intraperitoneal) in B6D2F1 (BDF1) mice
Details: endpoint: median survival time, higher = longer survival
How it was run: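 Survival ratio, drug arm over vehicle arm, in mice with a transplanted tumour.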

[1] = dose: 100.0 mg/kg/injection, schedule: Q01DX009 (ip), vehicle: saline with Tween-80
[2] = dose: 100.0 mg/kg/injection, schedule: Q04DX003 (ip), vehicle: Klucel (hydroxypropylcellulose) (HPC)
[3] = dose: 200.0 mg/kg/injection, schedule: Q04DX003 (ip), vehicle: Klucel (hydroxypropylcellulose) (HPC)
[4] = dose: 400.0 mg/kg/injection, schedule: Q04DX003 (ip), vehicle: Klucel (hydroxypropylcellulose) (HPC)
[5] = dose: 50.0 mg/kg/injection, schedule: Q01DX009 (ip), vehicle: saline with Tween-80
[6] = dose: 200.0 mg/kg/injection, schedule: Q01DX009 (ip), vehicle: saline with Tween-80
[7] = dose: 100.0 mg/kg/injection, schedule: Q01DX001 (ip), vehicle: saline with Tween-80
[8] = dose: 200.0 mg/kg/injection, schedule: Q01DX001 (ip), vehicle: saline with Tween-80
[9] = dose: 400.0 mg/kg/injection, schedule: Q01DX001 (ip), vehicle: saline with Tween-80
[10] = dose: 100.0 mg/kg/injection, schedule: Q01DX009 (ip), vehicle: Klucel (hydroxypropylcellulose) (HPC)
[11] = dose: 200.0 mg/kg/injection, schedule: Q01DX009 (ip), vehicle: Klucel (hydroxypropylcellulose) (HPC)
[12] = dose: 400.0 mg/kg/injection, schedule: Q01DX009 (ip), vehicle: Klucel (hydroxypropylcellulose) (HPC)
[13] = dose: 10.0 mg/kg/injection, schedule: Q01DX009 (ip), vehicle: saline
[14] = dose: 100.0 mg/kg/injection, schedule: Q04DX003 (ip), vehicle: saline

O=S(=O)(CS(=O)(=O)C(F)(F)C(F)(F)C(F)(F)C(F)(F)F)C(F)(F)C(F)(F)C(F)(F)C(F)(F)F
T/C (dose: 50.0 mg/kg/injection, schedule: Q01DX009 (ip), vehicle: saline): 114 % of control | T/C (dose: 100.0 mg/kg/injection, schedule: Q01DX009 (ip), vehicle: saline): 114 % of control | T/C (dose: 200.0 mg/kg/injection, schedule: Q01DX009 (ip), vehicle: saline): 106 % of control

O=C(O)CCc1cccnc1
T/C [1]: 104 % of control

Cc1ccc(OC/C=C/CSc2ccc(C)cc2)cc1
T/C [2]: 108 % of control | T/C [3]: 108 % of control | T/C [4]: 108 % of control

CN1CCC/C(=C(/N)c2ccccc2)S1(=O)=O
T/C [5]: 104 % of control | T/C [1]: 100 % of control | T/C [6]: 104 % of control

Cc1ccc(NC(=O)NC2CCCCC2)cc1
T/C [1]: 91 % of control | T/C [6]: 88 % of control | T/C (dose: 400.0 mg/kg/injection, schedule: Q01DX009 (ip), vehicle: saline with Tween-80): 100 % of control

Cc1c2ccccc2c(C)c2c1ccc1ccccc12
T/C (dose: 1.7 mg/kg/injection, schedule: Q01DX009 (ip), vehicle: saline with Tween-80): 172 % of control | T/C (dose: 2.6 mg/kg/injection, schedule: Q01DX009 (ip), vehicle: saline with Tween-80): 163 % of control | T/C (dose: 4.0 mg/kg/injection, schedule: Q01DX009 (ip), vehicle: saline with Tween-80): 177 % of control | T/C (dose: 6.0 mg/kg/injection, schedule: Q01DX009 (ip), vehicle: saline with Tween-80): 168 % of control | T/C (dose: 13.0 mg/kg/injection, schedule: Q01DX009 (ip), vehicle: saline with Tween-80): 172 % of control

Cc1c(Cl)cccc1NC(=O)/C=C/C(=O)O
T/C (dose: 44.0 mg/kg/injection, schedule: Q01DX009 (ip), vehicle: saline with Tween-80): 95 % of control | T/C [5]: 122 % of control | T/C (dose: 66.0 mg/kg/injection, schedule: Q01DX009 (ip), vehicle: saline with Tween-80): 100 % of control | T/C [1]: 100 % of control | T/C (dose: 150.0 mg/kg/injection, schedule: Q01DX009 (ip), vehicle: saline with Tween-80): 104 % of control | T/C [6]: 109 % of control

CC1CCCCC1O (stereo unspecified)
T/C [5]: 100 % of control and 109 % of control | T/C [1]: 93 % of control and 109 % of control | T/C [6]: 111 % of control and 95 % of control

CC(C(=O)O)=C(c1ccccc1)c1ccccc1
T/C [7]: 100 % of control | T/C [8]: 100 % of control | T/C [9]: 100 % of control

CNC1C(OC2C(OC3C(O)C(O)C(N=C(N)N)C(O)C3N=C(N)N)OC(C)C2(O)C=O)OC(CO)C(O)C1O (stereo unspecified)
T/C (dose: 100.0 mg/kg/injection, schedule: Q01DX009 (ip), vehicle: water): 103 % of control | T/C (dose: 200.0 mg/kg/injection, schedule: Q01DX009 (ip), vehicle: water): 112 % of control | T/C (dose: 400.0 mg/kg/injection, schedule: Q01DX009 (ip), vehicle: water): 103 % of control

CC1(CCBr)NC(=O)NC1=O (stereo unspecified)
T/C [10]: 110 % of control | T/C [2]: 100 % of control | T/C [11]: 105 % of control | T/C [3]: 115 % of control | T/C [12]: 105 % of control | T/C [4]: 100 % of control

COc1cc2c[n+](C)c3c4cc5c(cc4ccc3c2cc1OC)OCO5 (tested in a mixture with another compound)
T/C (dose: 1.25 mg/kg/injection, schedule: Q01DX009 (ip), vehicle: water): 124 % of control | T/C [13]: 163 % of control and 166 % of control | T/C (dose: 10.0 mg/kg/injection, schedule: Q01DX009 (ip), vehicle: water): 160 % of control | T/C (dose: 20.0 mg/kg/injection, schedule: Q01DX009 (ip), vehicle: saline): 172 % of control and 188 % of control and 203 % of control | T/C (dose: 20.0 mg/kg/injection, schedule: Q01DX009 (ip), vehicle: water): 150 % of control | T/C (dose: 40.0 mg/kg/injection, schedule: Q01DX009 (ip), vehicle: saline): 174 % of control and 215 % of control | T/C (dose: 40.0 mg/kg/injection, schedule: Q01DX009 (ip), vehicle: water): 110 % of control | T/C (dose: 80.0 mg/kg/injection, schedule: Q01DX009 (ip), vehicle: saline): 172 % of control and 188 % of control

Clc1ccc2c(c1)CN1Cc3cc(Cl)ccc3C2C1
T/C (dose: 50.0 mg/kg/injection, schedule: Q01DX001 (ip), vehicle: saline with Tween-80): 108 % of control | T/C [7]: 108 % of control | T/C [8]: 97 % of control

COC(=O)CCCCC(=O)OCC#CC#CCOC(=O)CCCCC(=O)OC
T/C [10]: 104 % of control | T/C [2]: 104 % of control | T/C [11]: 104 % of control | T/C [3]: 104 % of control | T/C [12]: 109 % of control | T/C [4]: 100 % of control

Nc1nc(CNc2ccc(Cl)cc2)nc(Nc2ccccc2)n1
T/C [14]: 105 % of control | T/C (dose: 200.0 mg/kg/injection, schedule: Q04DX003 (ip), vehicle: saline): 100 % of control | T/C (dose: 400.0 mg/kg/injection, schedule: Q04DX003 (ip), vehicle: saline): 100 % of control

COc1cc(Br)cc(/C=C/[N+](=O)[O-])c1OC
T/C (dose: 6.25 mg/kg/injection, schedule: Q01DX009 (ip), vehicle: saline with Tween-80): 113 % of control | T/C (dose: 12.5 mg/kg/injection, schedule: Q01DX009 (ip), vehicle: saline with Tween-80): 118 % of control | T/C (dose: 25.0 mg/kg/injection, schedule: Q01DX009 (ip), vehicle: saline with Tween-80): 109 % of control

CC(=O)NC(CCCCNC(=O)OCc1ccccc1)C(=O)NCC(=O)O (stereo unspecified) (Ac-[ξK](Cbz)-Gly-OH)
T/C (dose: 50.0 mg/kg/injection, schedule: Q01DX005 (ip), vehicle: saline with Tween-80): 93 % of control | T/C (dose: 100.0 mg/kg/injection, schedule: Q01DX005 (ip), vehicle: saline with Tween-80): 105 % of control | T/C (dose: 200.0 mg/kg/injection, schedule: Q01DX005 (ip), vehicle: saline with Tween-80): 100 % of control

CSc1cc(C)c(O)c(CO)c1
T/C (dose: 100.0 mg/kg/injection, schedule: Q01DX009 (ip), vehicle: other): 100 % of control | T/C (dose: 200.0 mg/kg/injection, schedule: Q01DX009 (ip), vehicle: other): 95 % of control | T/C (dose: 400.0 mg/kg/injection, schedule: Q01DX009 (ip), vehicle: other): 95 % of control

O=C(c1ccc[nH]1)C(Cl)(Cl)Cl
T/C [5]: 108 % of control | T/C [1]: 117 % of control | T/C [6]: 115 % of control

C/C(c1nc(N)nc(N)c1-c1ccc(Cl)cc1)=[N+](\C)[O-]
T/C [7]: 95 % of control | T/C [8]: 104 % of control | T/C [9]: 97 % of control

CC(=O)OS(C)(=O)=O
T/C (dose: 20.0 mg/kg/injection, schedule: Q04DX003 (ip), vehicle: saline): 100 % of control | T/C (dose: 40.0 mg/kg/injection, schedule: Q04DX003 (ip), vehicle: saline): 95 % of control | T/C (dose: 80.0 mg/kg/injection, schedule: Q04DX003 (ip), vehicle: saline): 104 % of control | T/C [14]: 110 % of control

O=C1C(Cl)=C(N2CC2)C(=O)C(Cl)=C1N1CC1
T/C (dose: 1.25 mg/kg/injection, schedule: Q01DX009 (ip), vehicle: saline with Tween-80): 172 % of control | T/C (dose: 2.5 mg/kg/injection, schedule: Q01DX009 (ip), vehicle: Klucel (hydroxypropylcellulose) (HPC)): 150 % of control | T/C (dose: 2.5 mg/kg/injection, schedule: Q01DX009 (ip), vehicle: saline with Tween-80): 169 % of control | T/C (dose: 5.0 mg/kg/injection, schedule: Q01DX009 (ip), vehicle: Klucel (hydroxypropylcellulose) (HPC)): 157 % of control and 165 % of control | T/C (dose: 5.0 mg/kg/injection, schedule: Q01DX009 (ip), vehicle: saline with Tween-80): 172 % of control | T/C (dose: 5.0 mg/kg/injection, schedule: Q01DX009 (ip), vehicle: saline): 155 % of control and 165 % of control | T/C (dose: 10.0 mg/kg/injection, schedule: Q01DX009 (ip), vehicle: Klucel (hydroxypropylcellulose) (HPC)): 123 % of control | T/C (dose: 10.0 mg/kg/injection, schedule: Q01DX009 (ip), vehicle: saline with Tween-80): 169 % of control | T/C [13]: 163 % of control and 200 % of control

c1ccc(-c2oc3cc4c(cc3c2-c2ccc(OCCN3CCCC3)cc2)CCC4)cc1
T/C (dose: 100.0 mg/kg/injection, schedule: Q04DX003 (ip), vehicle: saline with Tween-80): 95 % of control

c1ccc(SC23CC4CC(CC(C4)C2)C3)nc1
T/C (dose: 100.0 mg/kg/injection, schedule: Q01DX001 (ip), vehicle: Klucel (hydroxypropylcellulose) (HPC)): 100 % of control | T/C (dose: 200.0 mg/kg/injection, schedule: Q01DX001 (ip), vehicle: Klucel (hydroxypropylcellulose) (HPC)): 90 % of control | T/C (dose: 400.0 mg/kg/injection, schedule: Q01DX001 (ip), vehicle: Klucel (hydroxypropylcellulose) (HPC)): 100 % of control
